Legend:
[1] = clinical; design: species or system women; conditions: female, human, in vivo
Description: The effect on ovulation inhibition, serum drug concentrations and safety of a patch of the invention was investigated in a selected population of women. The study design was based on the requirements of the EMEA quideline for clinical studies with contraceptive steroids (Commitee for Proprietary Medicinal Products, CPMP/EWP 519/98).
Arcare MA-24A® is a polyisobutylene based adhesive from Adhesive Research.
The treatment phase includes a period of two menstrual cycles. The first treatment in the first cycle began one day after the volunteers started menstruating in this cycle by application of a patch. A total of three test patches were applied in intervals of 7 days between, such as application at days 1, 8 and 15 of the first cycle - each at different application sites- during each treatment cycle. Each patch was worn for 7 days, then replaced with a new patch to complete a total of 21 days of continuous use. This was followed by a 7-day treatment-free interval before the next treatment period started with a total of three patches applied, each applied with an interval of 7 days. If the patches were lost or became more than 40% detached, a new patch was applied.
The AUC was calculated according to the linear trapezoidal rule. […]
After incubation and centrifugation, the resultant precipitate was redissolved with NaOH. The assay has a lower limit of quantification of approx. 250 pg/ml.

[2] = cited from earlier work

Compound	Cmax ([1]; Cmax (mean) of ethinyl estradiol (EE)) [ng/mL]	Tmax ([1]; Tmax (mean) of ethinyl estradiol (EE)) [h]	Maximal plasma levels ([2]; US 5,376,377, ethylene vinyl acrylate adhesive layer, Gestodene and ethinylestradiol)	maximal plasma levels of Gestodene ([2]; WO 92/07590, transdermal compositions with penetration enhancers, Gestodene and an estrogen)
C#C[C@]1(O)CC[C@H]2[C@@H]3CCc4cc(O)ccc4[C@H]3CC[C@@]21C [Ethinylestradiol]	0.0456	48		
C#C[C@]1(O)C=C[C@H]2[C@@H]3CCC4=CC(=O)CC[C@@H]4[C@H]3CC[C@@]21CC [Gestodene, 13β-Ethyl-17α-ethynyl-17β-hydroxy-4,15-gonadien-3-one]			about 0.8 ng/ml	about 0.9 ng/ml
